Experimental data from ChEMBL document CHEMBL5247626, “In vitro and in vivo biological evaluation of newly synthesized multi-target 20(R)-panaxadiol derivatives for treating Alzheimer's disease” (Eur J Med Chem, 2022).
Active and inactive are the calls of the source. The calls are words filed in the database; no cut-off is given here.

Key:
PC-12 [1] = experiment: Neuroprotective activity against amyloid beta (25 to 35)-induced rat PC12 cells assessed as reduction in amyloid beta (25 to 35)-induced apoptosis rate at 15 uM incubated for 15 mins by Annexin V-FITC/PI staining based flow cytometric analysis (reference value: 2.9%); format: functional; design: scale not given: the % may be the effect or the level left; settings: 0.25 h
PC-12 [2] = experiment: Neuroprotective activity against amyloid beta (25 to 35)-induced rat PC12 cells assessed as decrease in intracellular ROS level at 7.5 uM incubated for 24 hrs by DCFH-DA staining based flow cytometry assay; format: functional, cell-based
PC-12 [3] = experiment: Neuroprotective activity against amyloid beta (25 to 35)-induced rat PC12 cells assessed as decrease in total tau protein expression level at 15 uM preincubated for 30 mins followed by amyloid beta (25 to 35) addition and measured after 24 hrs by western blot assay; format: functional, cell-based; settings: time 24.5 hrs
PC-12 [4] = experiment: Neuroprotective activity against amyloid beta (25 to 35)-induced rat PC12 cells assessed as decrease in tau hyperphosphorylation at Thr181 at 15 uM preincubated for 30 mins followed by amyloid beta (25 to 35) addition and measured after 24 hrs by western blot assay; format: functional, cell-based; settings: time 24.5 hrs

For `CC1(C)CCC[C@](C)([C@H]2CC[C@]3(C)[C@@H]2[C@H](O)C[C@@H]2[C@@]4(C)CC[C@H](O)C(C)(C)[C@@H]4CC[C@]23C)O1` [PANAXADIOL], the Activity (PC-12 [1]) was 5.4%, the Activity (PC-12 [2]) was “Active” and the Activity (PC-12 [3]) was “Active”. For the same compound, the Activity (PC-12 [4]) was “Active”.
